# From patent US6825199B2, “7-Substituted quinazolin-2,4-diones useful as antibacterial agents” (Warner-Lambert Company, priority 1997, dated 2004)
# Assays:
# Format in all cases: cell-based
# B. subtilis RB1 = assay: Antibacterial assay, standard microtitration (MIC); details: Bacillus subtilis, Gram positive, read-out: Minimum Inhibitory Concentrations B. subtilis RB1
# Protocol: (§1) Antibacterial assay: The compounds of the present invention were tested against an assortment of Gram negative and Gram positive organisms using standard microtitration techniques (Cohen, et al., Antimicrob. Agents Chemother., 1985;28:766; Heifetz, et al., Antimicrob. Agents Chemother., 1974;6:124).
# E. coli B90 = assay: Antibacterial assay, standard microtitration (MIC); details: Escherichia coli, B90; Gram negative; read-out: Minimum Inhibitory Concentrations E. coli B90
# Protocol: as §1
# E. coli MC4100 = assay: Antibacterial assay, standard microtitration (MIC); details: Escherichia coli, MC4100; Gram negative; read-out: Minimum Inhibitory Concentrations E. coli MC4100
# Protocol: as §1
# E. coli Tol C = assay: Antibacterial assay, standard microtitration (MIC); details: Escherichia coli, read-out: Minimum Inhibitory Concentrations E. coli Tol C
# Protocol: as §1
# S. aureus 29213 = assay: Antibacterial assay, standard microtitration (MIC); details: Staphylococcus aureus, 29213; Gram positive; read-out: Minimum Inhibitory Concentrations S. aureus 29213
# Protocol: as §1
# S. pyogenes C203 = assay: Antibacterial assay, standard microtitration (MIC); details: Streptococcus pyogenes, C203; Gram positive; read-out: Minimum Inhibitory Concentrations S. pyogenes C203
# Protocol: as §1
# [1] = test system: Chinese hamster V79 cells; assay: Mammalian cell cytotoxicity, colony formation; details: 3 hours drug treatment, colony formation after 5 days
# Protocol: The cytotoxicity was determined in Chinese hamster V79 cells. The cells were grown overnight and treated with drug for 3 hours at 37° C., at which time the compound containing media was replaced with fresh media. The cells were then incubated for 5 days and examined for colony formation.
smiles,measurement,setting,value
"CCn1c(=O)n(O)c(=O)c2cc(F)c(N3CCOCC3)cc21 [Example 3, 1-Ethyl-6-fluoro-3-hydroxy-7-morpholin-4-yl-1H-quinazoline-2,4-dione]",MIC,B. subtilis RB1,8 µg/mL
same,MIC,E. coli B90,4 µg/mL
same,MIC,E. coli MC4100,> 64 µg/mL
same,MIC,E. coli Tol C,2 µg/mL
same,MIC,S. aureus 29213,> 64 µg/mL
same,MIC,S. pyogenes C203,> 64 µg/mL
same,50% Cytotoxic Conc. in CHO Cells,[1],176 µg/mL
